Measured values reported in PMC4388757, “In Vitro and In Vivo Metabolism and Inhibitory Activities of Vasicine, a Potent Acetylcholinesterase and Butyrylcholinesterase Inhibitor” (PLoS ONE, 2015).
Structures can show the parent of a compound that is named as a salt. Where two headings read alike, the source gives them in different places.

Legend:
[1] = target: T1, AChE from Electrophorus electricus (Electrophorus electricus, UniProt O42275); test: biochemical; assay type: biochemical; details: for IC50: means ± SD of three replicate determinations; for fold reduction of AChE inhibitory activity: VAO vs VAS, VAO-3-S vs VAS-3-S, VAS-3-G vs VAS
T1 construct: purchased Sigma Aldrich Co. (St. Louis, MO, USA)
T1 sequence (O42275 24-633): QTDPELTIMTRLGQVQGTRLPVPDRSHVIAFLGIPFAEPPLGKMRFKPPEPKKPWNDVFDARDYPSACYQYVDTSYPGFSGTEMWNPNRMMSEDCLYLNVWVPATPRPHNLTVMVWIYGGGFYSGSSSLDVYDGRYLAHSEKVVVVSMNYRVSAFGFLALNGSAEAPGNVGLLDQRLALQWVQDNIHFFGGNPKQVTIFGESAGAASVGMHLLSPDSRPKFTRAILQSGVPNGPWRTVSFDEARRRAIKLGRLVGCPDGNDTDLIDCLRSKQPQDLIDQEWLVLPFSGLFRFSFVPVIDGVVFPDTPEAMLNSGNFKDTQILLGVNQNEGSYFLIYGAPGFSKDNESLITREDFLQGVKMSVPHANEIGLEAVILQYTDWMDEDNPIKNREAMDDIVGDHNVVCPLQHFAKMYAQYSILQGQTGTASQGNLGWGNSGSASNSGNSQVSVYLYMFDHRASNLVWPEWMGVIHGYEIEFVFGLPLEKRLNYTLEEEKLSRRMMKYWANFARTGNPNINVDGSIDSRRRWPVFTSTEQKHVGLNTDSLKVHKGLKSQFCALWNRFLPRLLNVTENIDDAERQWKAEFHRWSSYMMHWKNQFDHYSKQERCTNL
Description: VAS and VAO were isolated from P. harmala in our laboratory according to a previously reported method. VAS and VAO structures were elucidated by comparing their spectral data (UV, MS, ^1H-NMR, and ^13C NMR) with the references. […] AChE from Electrophorus electricus, BChE from equine serum, acetylcholine (ACh) chloride, butyrocholine (BCh) chloride, choline (Ch) chloride, chlormequat (internal standard, IS), glucose 6-phosphate, glucose-6-phosphate dehydrogenase, NADP, UDPGA, alamethicin, fetal bovine serum, dexamethasone, and insulin were purchased from Sigma Aldrich Co. (St. Louis, MO, USA). Tris base and MgCl2 were purchased from Majorbio Biotech Corp., Ltd. (Shanghai, China). MCI Gel CHP 20P was purchased from Mitsubishi Chemical Crop. (Tokyo, Japan). Silica Gel C18 (MB 100-40/75) was purchased from Fuji Silysia Chemical Ltd. (Kasugai, Japan). Acetonitrile and methanol of HPLC grade were purchased from Fisher Scientific Co. (Santa Clara, USA). HPLC grade 96% formic acid was purchased from Tedia Co. (Fairfield, USA). Water was produced with a Milli-Q Academic System (Millipore, Billerica, MA). All other reagents and solvents were either analytical or HPLC grade.
(§1) The AChE and BChE inhibitory activities of VAS and its main metabolites, namely, VAO, VASL, VAOL, VAS-3-S, VAO-3-S, and VAS-3-G, were evaluated based on our previously established method. A 50 μL incubation system composed of 10 μL of the test compound solution (all the test compound solutions were diluted to a series of concentrations with buffer solution before each experiment) and 40 μL of the enzyme solutions (with final concentrations: 0.0035 unit/mL for AChE, or 0.008 unit/mL for BChE) were mixed and pre-incubated for 15 min. Up to 50 μL of substrate solution (final concentration of 5.505 μM for ACh, or 7.152 μM for BCh) was added into the mixture, which was then incubated for 20 min at 25°C. The reaction was terminated by addition of 300 μL of ice acetonitrile solution (0°C), which was immediately dissolved with 1.899 μM IS (chlormequat). The solution was then centrifuged (15,000 × g, 10 min), and the supernatant was used for analysis by UPLC-ESI MS/MS. The inhibitive IC50 values of VAS and its key metabolites on AChE and BChE were calculated using the Prism software (GraphPad Software Inc., San Diego, CA).

[2] = target: T2, BChE from equine serum (Equus caballus, UniProt P81908); test: In vitro anticholinesterase assay (UPLC-ESI MS/MS), BChE; assay type: biochemical; details: for IC50: means ± SD of three replicate determinations; for fold reduction of BChE inhibitory activity: VAO vs VAS, VAO-3-S vs VAS-3-S, VAS-3-G vs VAS
T2 construct: BChE from equine serum; purchased Sigma Aldrich Co. (St. Louis, MO, USA); host or cells: equine serum
T2 sequence (P81908 whole entry): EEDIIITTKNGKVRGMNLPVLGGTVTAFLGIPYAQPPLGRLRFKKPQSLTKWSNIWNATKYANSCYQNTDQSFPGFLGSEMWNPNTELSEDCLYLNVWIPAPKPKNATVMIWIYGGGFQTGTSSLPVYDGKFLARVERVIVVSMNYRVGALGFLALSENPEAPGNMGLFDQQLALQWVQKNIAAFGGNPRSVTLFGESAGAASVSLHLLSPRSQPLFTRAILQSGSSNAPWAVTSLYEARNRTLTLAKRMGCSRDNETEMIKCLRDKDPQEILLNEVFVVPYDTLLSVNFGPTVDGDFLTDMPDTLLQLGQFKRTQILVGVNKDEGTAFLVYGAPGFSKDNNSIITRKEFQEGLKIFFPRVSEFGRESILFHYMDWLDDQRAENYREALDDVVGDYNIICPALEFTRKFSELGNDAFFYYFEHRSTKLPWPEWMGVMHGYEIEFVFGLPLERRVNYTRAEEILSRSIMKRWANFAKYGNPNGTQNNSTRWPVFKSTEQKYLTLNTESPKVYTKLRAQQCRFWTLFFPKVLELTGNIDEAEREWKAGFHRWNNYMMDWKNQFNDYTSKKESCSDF
Experimental: VAS and VAO were isolated from P. harmala in our laboratory according to a previously reported method. VAS and VAO structures were elucidated by comparing their spectral data (UV, MS, ^1H-NMR, and ^13C NMR) with the references. The purities of VAS and VAO were determined to be more than 98% through normalization of the peak areas detected by HPLC-DAD, UPLC-MS/MS, ^1H-NMR, and ^13C NMR. AChE from Electrophorus electricus, BChE from equine serum, acetylcholine (ACh) chloride, butyrocholine (BCh) chloride, choline (Ch) chloride, chlormequat (internal standard, IS), glucose 6-phosphate, glucose-6-phosphate dehydrogenase, NADP, UDPGA, alamethicin, fetal bovine serum, dexamethasone, and insulin were purchased from Sigma Aldrich Co. (St. Louis, MO, USA). Tris base and MgCl2 were purchased from Majorbio Biotech Corp., Ltd. (Shanghai, China). MCI Gel CHP 20P was purchased from Mitsubishi Chemical Crop. (Tokyo, Japan). Silica Gel C18 (MB 100-40/75) was purchased from Fuji Silysia Chemical Ltd. (Kasugai, Japan). Acetonitrile and methanol of HPLC grade were purchased from Fisher Scientific Co. (Santa Clara, USA). HPLC grade 96% formic acid was purchased from Tedia Co. (Fairfield, USA). Water was produced with a Milli-Q Academic System (Millipore, Billerica, MA). All other reagents and solvents were either analytical or HPLC grade.
as §1

[3] = Bioavailability studies of VAS (unpublished data of the laboratory); details: in vivo, no published data; for half-life: read-out: elimination half-life (converted)
Description: (§2) It illustrated that VAS is safe as a potential candidate drug.

[4] = LD50 determination of VAS (unpublished data); details: in vivo; no published data
Description: as §2

[5] = system: rats; test: Observation of side effects during 21-day oral dosing for urine collection; assay type: in vivo, rat; details: 15 rats, oral 100 mg/kg once a day for 21 consecutive days
Experimental: The urine samples used for isolating and purifying the metabolites were collected from 15 rats that were given VAS orally once a day, over 21 consecutive days, at dose of 100 mg/kg body weight. In total, approximately 5 L of urine was collected and centrifuged at 4000 × g for 15 min. The supernatant was then stored at −20°C until use. At the end of experiment, all rats were sacrificed by CO2 asphyxiation.
as §2

[6] = target: T1, AChE from Electrophorus electricus; design: method as in PMID 23270245, doi:10.1155/2013/71723, PMID 24631841; details: previous studies; ref [3], [6]–[8]; read-out: IC50 against AChE; cited from earlier work
[7] = target: T2, BChE from equine serum; design: method as in PMID 23270245, doi:10.1155/2013/71723, PMID 24631841; details: previous studies; ref [3], [6]–[8]; read-out: IC50 against BChE; cited from earlier work
[8] = Metabolite detection in rat bio-specimens (urine, feces, bile, plasma) by UPLC/ESI-QTOF-MS after oral VAS; assay type: in vivo
Description: Bio-specimens (urine, feces, bile and plasma) collected form 18 male rats were used to study the VAS metabolism in vivo. […] Baseline urine and fecal samples were collected before oral administration of VAS. After intraperitoneal injection of urethane (1.4 g/kg), abdominal incision was made for bile sampling and the common bile duct was cannulated with a Closed IV Catheter System (ID = 0.07 cm, Becton Dickinson, USA) to collect bile samples. […] Baseline rat bile was collected before oral administration of VAS. All the samples were stored at −20°C until analysis. Blood was collected from the angular vein of the last six male rats at 0.25, 0.5, 1, and 2 h after oral administration of VAS 50 mg/kg VAS. Plasma was obtained by centrifuging blood at 4000 × g for 10 min, and then stored at −20°C until use.
Up to 1 mL of urine was thoroughly mixed with same volume of acetonitrile, and then centrifuged at 15,000 × g for 10 min. The supernatant was evaporated until dry under nitrogen at 37°C. The residue of the supernatant was re-dissolved in 200 μL of 5% methanol, and then centrifuged at 15,000 × g for 10 min. The supernatant was injected into the chromatographic systems for separation and identification of metabolites.
The supernatant was then evaporated to dryness by a gentle stream of nitrogen at 37°C. The residue was dissolved by 200 μL of 5% methanol and centrifuged at 15,000 × g for 10 min prior to injection.
Plasma or bile (400 μL) was mixed and vortexed with 1200 μL of acetonitrile for […], then centrifuged at 15,000 × g for 10 min at 4°C. Afterward, the supernatant was evaporated until dry by a gentle stream of nitrogen at 37°C. The residue was dissolved by 80 μL of 5% methanol and centrifuged at 15,000 × g for 10 min. The supernatants (5 μL) were used in the UPLC/ESI-QTOF-MS analysis.
Chromatographic analysis was performed on an HSS T3 column (100 mm × 2.1 mm, 1.8 μm particle size; Waters Corporation, Milford, MA, USA) for separation of samples using an ACQUITY UPLC system equipped with a binary solvent manager system and an autosampler. […] The flow rate was 0.4 mL/min. The column and sample-tray temperatures were maintained at 40°C and 10°C, respectively.
A Waters ACQUITY Synapt G2 Q/TOF tandem mass spectrometer was combined with the UPLC system through an electrospray ionization (ESI) interface and controlled by Masslynx software (version 4.1, Waters Corp., Manchester, UK). The positive ionization mode of ESI source was operated. The optimized conditions for maximum detection of metabolites were as follows: source temperature, 120°C; desolvation temperature, 400°C; capillary voltage, 3.0 kV; sample cone, 30 V and extraction cone, 4.0 V. The cone and desolvation gas (N2) flows were set at 75 and 800 (L/h), respectively. […] Data were collected in centroid mode and the MS^E approach using a dynamic ramp of collision energy was carried out in two scan functions. Function 1 (low energy): mass scan ranged from 100–1000,with 0.2 s scan time and 0.05 s inter-scan delay; Function 2 (high energy): mass scan ranged from 100–1000 with 0.2 s scan time, 0.05 s inter-scan delay, and collision energy ramp of 10–40 V. MS/MS analysis were operated for major metabolites to obtain additional information from product ions since the same collision energy of MS^E in Function 2 could not match each precursor ion.

[9] = design: method as in ref [36] = [36]; 36 Swamy G , Ravikumar K . Crystal and molecular structures of quinazolines: A ring conformational study . J Chem Crystallogr . 2005; 35 : 183 – 189 .; details: in vitro and in vivo; ref [36]; cited from earlier work
[10] = design: method as in ref [37] = [37]; 37 Bhide M , Naik P , Ghooi R . Comparative studies on the pharmacological evaluation of vasicine and vasicinone . Bull Haffkin Inst . 1976; 4 : 45 – 50 .; details: comparable to sodium cromoglycate; ref [37]; cited from earlier work
[11] = Stability of glucuronide metabolites in collected urine; assay type: physicochemical; details: room temperature for an excessively long time, pH > 10

| SMILES | SI (AChE selectivity index, IC50 BChE/IC50 AChE) [1] | IC50 [1] [µM] | IC50 [2] [µM] | fold reduction of BChE inhibitory activity [2] [fold] | abundance in plasma [8] | further results |
| --- | --- | --- | --- | --- | --- | --- |
| O[C@H]1CCN2Cc3ccccc3N=C12 [Metabolite M0, Vasicine] | 0.030 | 3.38 ± 0.03 | 0.101 ± 0.003 |  |  | half-life ([3]; after intravenous administration): ~5 h; bioavailability ([3]; after oral administration, read-out: absolute bioavailability): ~50%; half-life ([3]; after oral administration): ~1.5 h; LD50 [4]: 308 mg/kg; observable side effects [5]: no any observable side effects; IC50 [6]: 3.24 ± 0.08 µM; IC50 [7]: 0.1 µM |
| O=c1c2ccccc2nc2n1CCC2O (stereo not shown) [Metabolite M1, vasicinone] | 0.133 | 76.6 ± 8.46 | 10.2 ± 2.08 | 101.0 | high abundance | fold reduction of AChE inhibitory activity [1]: 22.7 fold; bronchodilatory effects compared with VAS [9]: more bronchodilatory effects than parent VAS; anti-asthmatic activity compared with VAS [10]: more potent anti-asthmatic activity than VAS |
| Oc1ccc2c(c1)CN1CCC(O)C1=N2 (stereo not shown) [Metabolite M3-2, vasicinol] | 0.930 | 2.65 ± 0.432 | 2.46 ± 0.224 |  |  |  |
| OC1CCN2C1=Nc1ccccc1C2O (stereo not shown) [Metabolite M3-3, 1,2,3,9-tetrahydropyrrolo [2,1-b] quinazolin-3,9-diol] |  |  |  |  | high abundance |  |
| O=c1c2cc(O)ccc2nc2n1CCC2O (stereo not shown) [Metabolite M5-2, vasicinolone] | 1.545 | 46.9 ± 2.84 | 72.4 ± 8.63 |  |  |  |
| O=S(=O)(O)OC1CCN2Cc3ccccc3N=C12 (stereo not shown) [Metabolite M15, 1,2,3,9-tetrahydropyrrolo [2,1-b] quinazolin-3-yl hydrogen sulfate] | 0.198 | 49.6 ± 2.77 | 9.82 ± 0.925 |  | high abundance |  |
| O=c1c2ccccc2nc2n1CCC2OS(=O)(=O)O (stereo not shown) [Metabolite M16, 9-oxo-1,2,3,9-tetrahydropyrrolo [2,1-b] quinazolin-3-yl hydrogen sulfate] | 0.069 | 395 ± 19.5 | 27.3 ± 5.03 | 2.8 | high abundance | fold reduction of AChE inhibitory activity [1]: 8.0 fold |
| O=C(O)C1OC(OC2CCN3Cc4ccccc4N=C23)C(O)C(O)C1O [Metabolite M20-2, 1,2,3,9-tetrahydropyrrolo [2,1-b] quinazolin-3-β-D-glucuronide] | 4.998 | 20.8 ± 0.329 | 104 ± 15.5 | 1027.7 | high abundance | stability in urine sample [11]: hydrolyzed |
| O=C(O)[C@H]1O[C@@H](O[C@H]2CCn3c2nc2ccccc2c3=O)[C@H](O)[C@@H](O)[C@@H]1O [Metabolite M21-2, vasicinone-3-O-glucuronide] |  |  |  |  | high abundance | stability in urine sample [11]: hydrolyzed |
